Molecular target: human APJ receptor (Homo sapiens (Human), UniProt P35414)
Test: [35S]GTPγS binding assay on membranes from CHO cells stably expressing human APJ receptor
Format: biochemical
Conditions: membranes of CHO cells stably expressing human APJ receptor, read-out: Activity hAPJ SPA EC50 IP
Method: The human APJ receptor was cloned by polymerase chain reaction and the gene encoding the receptor was subcloned in pFLAG-CMV™-3 expression vector (Sigma, Saint Louis, Mo. USA) in-house at Amgen. A GTPγS binding assay was performed on membranes prepared from CHO cells stably expressing human APJ receptor. The optimum experimental conditions for the concentrations of GDP, MgCl2, and NaCl in the assay buffer were initially determined. […] Incubation was at RT for 90 min and the microplate was read using a ViewLux™ ultra HTS Microplate Imager (PerkinElmer, Inc.). All the results presented are means of several independent experiments and analyzed by non-linear regression methods using the commercially available program Prism (GraphPad, San Diego, Calif.) providing the EC50 values detailed in Table 27.

Chain of human APJ receptor (P35414 whole entry): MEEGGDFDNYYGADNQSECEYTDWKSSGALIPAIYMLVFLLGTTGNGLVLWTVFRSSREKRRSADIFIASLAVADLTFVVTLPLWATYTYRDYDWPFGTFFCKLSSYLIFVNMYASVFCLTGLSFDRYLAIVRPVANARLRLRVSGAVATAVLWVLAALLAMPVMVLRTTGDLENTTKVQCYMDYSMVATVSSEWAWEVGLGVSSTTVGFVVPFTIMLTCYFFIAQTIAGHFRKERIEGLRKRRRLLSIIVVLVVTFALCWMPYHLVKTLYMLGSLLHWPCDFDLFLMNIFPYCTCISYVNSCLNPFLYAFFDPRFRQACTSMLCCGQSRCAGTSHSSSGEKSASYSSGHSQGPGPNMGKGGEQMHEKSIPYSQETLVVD

Q: For CO[C@H](c1ncc(Cl)cn1)[C@H](C)S(=O)(=O)Nc1nnc(-c2cncc(C)c2)n1C1CC12CC2 (mixture of isomers) [Example 150.0, (1R,2S)-1-(5-Chloropyrimidin-2-yl)-1-methoxy-N-(5-(5-methylpyridin-3-yl)-4-((R)-spiro[2.2]pentan-1-yl)-4H-1,2,4-triazol-3-yl)propane-2-sulfonamide and (1R,2S)-1-(5-chloropyrimidin-2-yl)-1-methoxy-N-(5-(5-methylpyridin-3-yl)-4-((S)-spiro[2.2]pentan-1-yl)-4H-1,2,4-triazol-3-yl)propane-2-sulfonamide], which EC50 is on record?
A: The EC50 was 100 nM.

Q: For COc1cccc(-c2nnc(NS(=O)(=O)[C@@H](C)[C@H](OC)c3ncc(Cl)cn3)n2C2CC2(F)F)n1 (mixture of isomers) [Example 156.0, (1R,2S)-1-(5-Chloropyrimidin-2-yl)-N-(4-((S)-2,2-difluorocyclopropyl)-5-(6-methoxypyridin-2-yl)-4H-1,2,4-triazol-3-yl)-1-methoxypropane-2-sulfonamide and (1R,2S)-1-(5-chloropyrimidin-2-yl)-N-(4-((R)-2,2-difluorocyclopropyl)-5-(6-methoxypyridin-2-yl)-4H-1,2,4-triazol-3-yl)-1-methoxypropane-2-sulfonamide], which EC50 is on record?
A: The EC50 was 37 nM.

Q: For COc1cccc(-c2nnc(NS(=O)(=O)[C@@H](C)[C@H](OC)c3ncc(Cl)cn3)n2[C@@H](C)c2ccno2)n1 (mixture of isomers) [Example 200.0, (1R,2S)-1-(5-chloro-2-pyrimidinyl)-1-methoxy-N-(5-(6-methoxy-2-pyridinyl)-4-((1R)-1-(1,2-oxazol-5-yl)ethyl)-4H-1,2,4-triazol-3-yl)-2-propanesulfonamide and (1R,2S)-1-(5-chloro-2-pyrimidinyl)-1-methoxy-N-(5-(6-methoxy-2-pyridinyl)-4-((1S)-1-(1,2-oxazol-5-yl)ethyl)-4H-1,2,4-triazol-3-yl)-2-propanesulfonamide], which EC50 is on record?
A: The EC50 was 0.87 nM.

Q: How did the EC50 turn out when COc1cccc(-c2nnc(NS(=O)(=O)[C@@H](C)[C@H](C)c3ncc(Cl)cn3)n2[C@@H](C)c2ccno2)n1 (mixture of isomers) [Example 201.0, (2S,3R)-3-(5-chloro-2-pyrimidinyl)-N-(5-(6-methoxy-2-pyridinyl)-4-((1R)-1-(1,2-oxazol-5-yl)ethyl)-4H-1,2,4-triazol-3-yl)-2-butanesulfonamide and (2S,3R)-3-(5-chloro-2-pyrimidinyl)-N-(5-(6-methoxy-2-pyridinyl)-4-((1S)-1-(1,2-oxazol-5-yl)ethyl)-4H-1,2,4-triazol-3-yl)-2-butanesulfonamide] was run?
A: Its EC50 is 3.5 nM.

Q: How did the EC50 turn out when CC[C@H](c1c(C)noc1C)n1c(NS(=O)(=O)[C@@H](C)[C@H](OC)c2cnc(C)cn2)nnc1-c1cccc(OC)n1 (mixture of isomers) [Example 208.0, (1R,2S)-N-(4-((1R)-1-(3,5-dimethyl-1,2-oxazol-4-yl)propyl)-5-(6-methoxy-2-pyridinyl)-4H-1,2,4-triazol-3-yl)-1-methoxy-1-(5-methyl-2-pyrazinyl)-2-propanesulfonamide and (1R,2S)-N-(4-((1S)-1-(3,5-dimethyl-1,2-oxazol-4-yl)propyl)-5-(6-methoxy-2-pyridinyl)-4H-1,2,4-triazol-3-yl)-1-methoxy-1-(5-methyl-2-pyrazinyl)-2-propanesulfonamide] was run?
A: Its EC50 is 42 nM.

Q: With CC[C@H](c1c(C)noc1C)n1c(NS(=O)(=O)[C@@H](C)[C@@H](OC(C)C)c2ncc(C)cn2)nnc1-c1cccc(OC)n1 (mixture of isomers) [Example 209.0, (1S,2S)-N-(4-((1R)-1-(3,5-dimethyl-1,2-oxazol-4-yl)propyl)-5-(6-methoxy-2-pyridinyl)-4H-1,2,4-triazol-3-yl)-1-(5-methyl-2-pyrimidinyl)-1-(2-propanyloxy)-2-propanesulfonamide and (1S,2S)-N-(4-((1S)-1-(3,5-dimethyl-1,2-oxazol-4-yl)propyl)-5-(6-methoxy-2-pyridinyl)-4H-1,2,4-triazol-3-yl)-1-(5-methyl-2-pyrimidinyl)-1-(2-propanyloxy)-2-propanesulfonamide] as the compound, how does the EC50 read?
A: The EC50 was 14 nM.

Q: How did the EC50 turn out when CC[C@H](c1c(C)noc1C)n1c(NS(=O)(=O)[C@@H](C)[C@H](C)c2ncc(Cl)cn2)nnc1-c1cccc(OC)n1 (mixture of isomers) [Example 210.0, (2S,3R)-3-(5-chloro-2-pyrimidinyl)-N-(4-((1R)-1-(3,5-dimethyl-1,2-oxazol-4-yl)propyl)-5-(6-methoxy-2-pyridinyl)-4H-1,2,4-triazol-3-yl)-2-butanesulfonamide and (2S,3R)-3-(5-chloro-2-pyrimidinyl)-N-(4-((1S)-1-(3,5-dimethyl-1,2-oxazol-4-yl)propyl)-5-(6-methoxy-2-pyridinyl)-4H-1,2,4-triazol-3-yl)-2-butanesulfonamide] was run?
A: The EC50 was 5.3 nM.

Q: For CC[C@H](c1c(C)noc1C)n1c(NS(=O)(=O)[C@@H](C)[C@H](OC)c2ncc(Cl)cn2)nnc1-c1cccc(OC)n1 (mixture of isomers) [Example 211.0, (1R,2S)-1-(5-chloro-2-pyrimidinyl)-N-(4-((1R)-1-(3,5-dimethyl-1,2-oxazol-4-yl)propyl)-5-(6-methoxy-2-pyridinyl)-4H-1,2,4-triazol-3-yl)-1-methoxy-2-propanesulfonamide and (1R,2S)-1-(5-chloro-2-pyrimidinyl)-N-(4-((1S)-1-(3,5-dimethyl-1,2-oxazol-4-yl)propyl)-5-(6-methoxy-2-pyridinyl)-4H-1,2,4-triazol-3-yl)-1-methoxy-2-propanesulfonamide], which EC50 is on record?
A: Its EC50 is 1.8 nM.

Q: For COc1cccc(-c2nnc(NS(=O)(=O)[C@@H](C)[C@@H](OC(C)C)c3ncc(C)cn3)n2[C@H](c2conc2C)C2CC2)n1 (mixture of isomers) [Example 226.0, (1S,2S)-N-(4-((R)-cyclopropyl(3-methyl-1,2-oxazol-4-yl)methyl)-5-(6-methoxy-2-pyridinyl)-4H-1,2,4-triazol-3-yl)-1-(5-methyl-2-pyrimidinyl)-1-(2-propanyloxy)-2-propanesulfonamide and (1S,2S)-N-(4-((S)-cyclopropyl(3-methyl-1,2-oxazol-4-yl)methyl)-5-(6-methoxy-2-pyridinyl)-4H-1,2,4-triazol-3-yl)-1-(5-methyl-2-pyrimidinyl)-1-(2-propanyloxy)-2-propanesulfonamide], which EC50 is on record?
A: The EC50 was 0.88 nM.

Q: For CC[C@@H](c1conc1C)n1c(NS(=O)(=O)[C@@H](C)[C@H](C)c2ncc(Cl)cn2)nnc1-c1cccc(OC)n1 (mixture of isomers) [Example 227.0, (2S,3R)-3-(5-chloro-2-pyrimidinyl)-N-(5-(6-methoxy-2-pyridinyl)-4-((1R)-1-(3-methyl-1,2-oxazol-4-yl)propyl)-4H-1,2,4-triazol-3-yl)-2-butanesulfonamide and (2S,3R)-3-(5-chloro-2-pyrimidinyl)-N-(5-(6-methoxy-2-pyridinyl)-4-((1S)-1-(3-methyl-1,2-oxazol-4-yl)propyl)-4H-1,2,4-triazol-3-yl)-2-butanesulfonamide], which EC50 is on record?
A: The EC50 was 4.5 nM.

Q: With COc1cccc(-c2nnc(NS(=O)(=O)[C@@H](C)[C@H](C)c3ncc(Cl)cn3)n2[C@H](c2conc2C)C2CC2)n1 (mixture of isomers) [Example 228.0, (2S,3R)-3-(5-chloro-2-pyrimidinyl)-N-(4-((S)-cyclopropyl(3-methyl-1,2-oxazol-4-yl)methyl)-5-(6-methoxy-2-pyridinyl)-4H-1,2,4-triazol-3-yl)-2-butanesulfonamide and (2S,3R)-3-(5-chloro-2-pyrimidinyl)-N-(4-((R)-cyclopropyl(3-methyl-1,2-oxazol-4-yl)methyl)-5-(6-methoxy-2-pyridinyl)-4H-1,2,4-triazol-3-yl)-2-butanesulfonamide] as the compound, how does the EC50 read?
A: Its EC50 is 0.88 nM.

Q: For CO[C@H](c1ncc(Cl)cn1)[C@H](C)S(=O)(=O)Nc1nnc(-c2cncc(C)c2)n1C[C@H]1CCCCO1 (mixture of isomers) [Example 299.0, (1R,2S)-1-(5-chloropyrimidin-2-yl)-1-methoxy-N-(5-(5-methylpyridin-3-yl)-4-(((R)-tetrahydro-2H-pyran-2-yl)methyl)-4H-1,2,4-triazol-3-yl)propane-2-sulfonamide and (1R,2S)-1-(5-chloropyrimidin-2-yl)-1-methoxy-N-(5-(5-methylpyridin-3-yl)-4-(((S)-tetrahydro-2H-pyran-2-yl)methyl)-4H-1,2,4-triazol-3-yl)propane-2-sulfonamide], which EC50 is on record?
A: The EC50 was 120 nM.

Q: How did the EC50 turn out when COc1cccc(-c2nnc(NS(=O)(=O)[C@@H](C)[C@H](C)c3ncc(Cl)cn3)n2[C@@H](C)c2ccon2)n1 (racemic) [Example 267.0, (2S,3R)-3-(5-chloropyrimidin-2-yl)-N-(4-((R)-1-(isoxazol-3-yl)ethyl)-5-(6-methoxypyridin-2-yl)-4H-1,2,4-triazol-3-yl)butane-2-sulfonamide or (2S,3R)-3-(5-chloropyrimidin-2-yl)-N-(4-((S)-1-(isoxazol-3-yl)ethyl)-5-(6-methoxypyridin-2-yl)-4H-1,2,4-triazol-3-yl)butane-2-sulfonamide] was run?
A: Its EC50 is 4.2 nM.

Q: COc1cccc(-c2nnc(NS(=O)(=O)[C@@H](C)[C@H](C)c3ncc(Cl)cn3)n2[C@@H](C)c2ccon2)n1 (racemic) [Example 268.0, (2S,3R)-3-(5-chloropyrimidin-2-yl)-N-(4-((R)-1-(isoxazol-3-yl)ethyl)-5-(6-methoxypyridin-2-yl)-4H-1,2,4-triazol-3-yl)butane-2-sulfonamide or (2S,3R)-3-(5-chloropyrimidin-2-yl)-N-(4-((S)-1-(isoxazol-3-yl)ethyl)-5-(6-methoxypyridin-2-yl)-4H-1,2,4-triazol-3-yl)butane-2-sulfonamide] was tested. Which EC50 did it give?
A: The EC50 was 2.7 nM.
